Results: US10962508B2, “Ultrasound-based method and related system to evaluate hemostatic function of whole blood” (University of Virginia Patent Foundation, priority 2009, dated 2021)
“Also recorded” adds a separate entry of the source.

How the values were obtained:
Format in all cases: cell-based, human
[1] = tested on: fibrinolysis of whole blood clot; assay: Sonorheometry of whole blood: assessment of fibrinolytic proteins (urokinase titration); details: urokinase 0, 100, 150, 200 Units per ml of blood
Procedure: (§1) Blood samples were obtained from a peripheral vein of the arm of a patient into six 1.8 ml Vacutainers™ (Becton Dickinson, Franklin Lakes, N.J.) containing 3.2% (0.105M) sodium citrate to prevent coagulation within the tubes. The first tube was discarded, while the remaining tubes were placed on a rocker table and analyzed sequentially starting thirty minutes after the draw. For all the experiments described here, samples were obtained from a total of eight volunteers (four male and four female) with age range of twenty-three to thirty years (mean and standard deviation of 25.75±3.3 years) and with no history of thrombotic or hemorrhagic disorders. Ultrasound pulses having 10 Mhz center frequency were applied, PRF was adaptively adjusted with the range of about 25 Hz to about 12.8 kHz. Automated measurements having a one second acquisition time were performed every six seconds.
(§2) In a typical experiment, 1 ml of citrated blood was pipetted into a 4 ml clear polystyrene cuvette 142 along with 0.5 mg of kaolin activator to start coagulation through activation of the intrinsic pathway and 62 μl of 0.2M CaCl2 to reverse the anticoagulant effect of the sodium citrate. Other reagents were also added as required by the specific study performed. Phosphate Buffer Saline (PBS) solution was added to maintain identical blood dilution. […]
(§3) Gly-Pro-Arg-Pro (GPRP) was obtained from Calbiochem (EMD Chemicals Inc., Gibbstown, N.J.) with 99.1% purity as determined by HPLC. […]
(§4) The raw ultrasound data were transferred from the custom PCB 110 to the laptop computer 150 through USB interface 112 and analyzed in MATLAB (MathWorks Inc., Natick, Mass.). […]
(§5) The sonorheometry parameters were calculated by fitting values 20 T to a sigmoidal curve 602 and evaluating the first derivative 30 of the curve 602, as shown in FIG. 8. For example, the clotting times TC1 and TC2 were calculated based on a threshold value of the derivative curve (20% of the minimum value), whereas the clotting slope CFR is the minimum of the derivative curve. […]

[2] = tested on: platelet aggregation in whole blood; assay: Sonorheometry of whole blood: assessment of platelet function (abciximab titration)
Procedure: as §1, §2, §3, §4, §5

[3] = tested on: fibrin polymerization in whole blood; assay: Sonorheometry of whole blood: coagulation plasma factors and fibrin polymerization (GPRP titration); details: kaolin-activated citrated whole blood, 5 volunteers; GPRP 0, 1, 2, 4, 8 mM
Procedure: as §1
In a typical experiment, 1 ml of citrated blood was pipetted into a 4 ml clear polystyrene cuvette 142 along with 0.5 mg of kaolin activator to start coagulation through activation of the intrinsic pathway and 62 μl of 0.2M CaCl2 to reverse the anticoagulant effect of the sodium citrate. Other reagents were also added as required by the specific study performed. Phosphate Buffer Saline (PBS) solution was added to maintain identical blood dilution. Sonorheometry data acquisition was initiated one minute after all the reagents were pipetted into the sample, and measurements were performed every six seconds.
Gly-Pro-Arg-Pro (GPRP) was obtained from Calbiochem (EMD Chemicals Inc., Gibbstown, N.J.) with 99.1% purity as determined by HPLC. GPRP was dissolved in PBS into 100 mM stock. Kaolin was obtained in powder form (Sigma Aldrich, St. Louis, Mo.) and suspended in sterile sodium chloride solution (Becton Dickinson, Franklin Lakes, N.J.). Monoclonal antibody abciximab (ReoPro®, Eli Lilly and Company, Indianapolis, Ind.) was obtained in a concentration of 2 mg/ml. The original solution was diluted by a factor of five by adding 200 μL of PBS into 50 μl of the original ReoPro solution. The serine protease abbokinase (urokinase-type Plasminogen Activator, or uPA, Hyphen Biomed, Neuville-sur-Oise, France) was obtained in a concentration of 1 unit/μl.
as §4, §5

[4] = kaolin-activated citrated whole blood

urokinase
clot lysis time TL1 [1, 4]: decreased as a function of urokinase concentration
clot lysis time TL2 [1, 4]: decreased as a function of urokinase concentration
return of blood sample to a viscous fluid (clot dissolution) [1]: returned to a viscous fluid significantly faster with increasing concentrations of urokinase; also recorded: rapidly dissolved the blood clot and restored the original mechanical conditions prior to clot formation

abciximab: monoclonal antibody; inhibitor of platelet aggregation blocking the IIb/IIIa receptor
other parameters describing the dynamics of clot formation and dissolution ([2]; abciximab 0, 2, 4, 6, 8, 12 μg/ml): did not change significantly
variation of final clot stiffness across the concentrations used ([2]; abciximab 0 to 12 μg/ml): varied by over one order of magnitude
stiffness SMAX ([2]; kaolin-activated citrated whole blood, five individuals, abciximab 0, 2, 4, 6, 8, 12 μg/ml): reduces the stiffness SMAX yielding a softer clot

Gly-Pro-Arg-Pro [GPRP]
clot formation rate CFR (rate of fibrin polymerization) [3]: decreased
final clotting time TC2 [3]: increase with the concentration of GPRP
initial clotting time TC1 [3]: increase with the concentration of GPRP
stiffness S (final stiffness of the formed clot) [3]: decreased
